Test results reported in ChEMBL document CHEMBL4138123, “Design, synthesis and biological evaluation of novel pyrazolochalcones as potential modulators of PI3K/Akt/mTOR pathway and inducers of apoptosis in breast cancer cells” (Eur J Med Chem, 2017).

How the values were obtained:
Format in all cases: functional
NCI-H460 [1] = assay: Cytotoxicity against human NCI-H460 cells assessed as cell growth at 1 uM after 48 hrs by sulforhodamine B assay relative to control; conditions: NCI-H460, 48 h, read-out: Activity
OVCAR-5 = assay: Cytotoxicity against human OVCAR5 cells assessed as cell growth at 100 uM after 48 hrs by sulforhodamine B assay relative to control; conditions: OVCAR-5, 48 h, read-out: Activity
OVCAR-4 [2] = assay: Cytotoxicity against human OVCAR4 cells assessed as cell growth at 1 uM after 48 hrs by sulforhodamine B assay relative to control; conditions: OVCAR-4, 48 h, read-out: Activity
K562 [3] = assay: Cytotoxicity against human K562 cells assessed as growth inhibition after 48 hrs by sulforhodamine B assay; conditions: K562, 48 h
MDA-MB-435 [4] = assay: Cytotoxicity against human MDA-MB-435 cells assessed as growth inhibition after 48 hrs by sulforhodamine B assay; conditions: MDA-MB-435, 48 h
SR = assay: Cytotoxicity against human SR cells assessed as cell growth at 0.01 uM after 48 hrs by sulforhodamine B assay relative to control; conditions: read-out: Activity
HOP-62 [5] = assay: Cytotoxicity against human HOP62 cells assessed as cell growth at 10 uM after 48 hrs by sulforhodamine B assay relative to control; conditions: HOP-62, 48 h, read-out: Activity
COLO 205 = assay: Cytotoxicity against human COLO205 cells assessed as growth inhibition after 48 hrs by sulforhodamine B assay; conditions: COLO 205, 48 h
HOP-62 [6] = assay: Cytotoxicity against human HOP62 cells assessed as cell growth at 100 uM after 48 hrs by sulforhodamine B assay relative to control; conditions: HOP-62, 48 h, read-out: Activity
786-0 = assay: Cytotoxicity against human 786-0 cells assessed as cell growth at 0.01 uM after 48 hrs by sulforhodamine B assay relative to control; conditions: 786-0, 48 h, read-out: Activity
UACC-257 = assay: Cytotoxicity against human UACC257 cells assessed as cell growth at 0.01 uM after 48 hrs by sulforhodamine B assay relative to control; conditions: UACC-257, 48 h, read-out: Activity
OVCAR-4 [7] = assay: Cytotoxicity against human OVCAR4 cells assessed as cell growth at 10 uM after 48 hrs by sulforhodamine B assay relative to control; conditions: OVCAR-4, 48 h, read-out: Activity
Malme-3M [8] = assay: Cytotoxicity against human MALME-3M cells assessed as cell growth at 1 uM after 48 hrs by sulforhodamine B assay relative to control; conditions: read-out: Activity
NCI-H23 [9] = assay: Cytotoxicity against human NCI-H23 cells assessed as cell growth at 1 uM after 48 hrs by sulforhodamine B assay relative to control; conditions: NCI-H23, 48 h, read-out: Activity
NCI-H322M = assay: Cytotoxicity against human NCI-H322M cells assessed as cell growth at 1 uM after 48 hrs by sulforhodamine B assay relative to control; conditions: read-out: Activity
BT-549 [10] = assay: Cytotoxicity against human BT549 cells assessed as cell growth at 10 uM after 48 hrs by sulforhodamine B assay relative to control; conditions: BT-549, 48 h, read-out: Activity
IGROV-1 = assay: Cytotoxicity against human IGROV1 cells assessed as cell growth at 0.01 uM after 48 hrs by sulforhodamine B assay relative to control; conditions: IGROV-1, 48 h, read-out: Activity
BT-549 [11] = assay: Cytotoxicity against human BT549 cells assessed as cell growth at 0.1 uM after 48 hrs by sulforhodamine B assay relative to control; conditions: BT-549, 48 h, read-out: Activity
Malme-3M [12] = assay: Cytotoxicity against human MALME-3M cells assessed as cell growth at 0.1 uM after 48 hrs by sulforhodamine B assay relative to control; conditions: read-out: Activity
MDA-MB-435 [13] = assay: Cytotoxicity against human MDA-MB-435 cells assessed as cell growth at 0.01 uM after 48 hrs by sulforhodamine B assay relative to control; conditions: MDA-MB-435, 48 h, read-out: Activity
SF-539 = assay: Cytotoxicity against human SF539 cells assessed as cell growth at 1 uM after 48 hrs by sulforhodamine B assay relative to control; conditions: SF-539, 48 h, read-out: Activity
K562 [14] = assay: Cytotoxicity against human K562 cells assessed as cell growth at 10 uM after 48 hrs by sulforhodamine B assay relative to control; conditions: K562, 48 h, read-out: Activity
SK-OV-3 = assay: Cytotoxicity against human SKOV3 cells assessed as cell growth at 0.01 uM after 48 hrs by sulforhodamine B assay relative to control; conditions: SK-OV-3, 48 h, read-out: Activity
NCI-H460 [15] = assay: Cytotoxicity against human NCI-H460 cells assessed as cell growth at 0.1 uM after 48 hrs by sulforhodamine B assay relative to control; conditions: NCI-H460, 48 h, read-out: Activity
MDA-MB-468 = assay: Cytotoxicity against human MDA-MB-468 cells assessed as cell growth at 0.1 uM after 48 hrs by sulforhodamine B assay relative to control; conditions: MDA-MB-468, 48 h, read-out: Activity
K562 [16] = assay: Cytotoxicity against human K562 cells assessed as cell growth at 100 uM after 48 hrs by sulforhodamine B assay relative to control; conditions: K562, 48 h, read-out: Activity
MCF7 = assay: Cytotoxicity against human MCF7 cells assessed as cell growth at 100 uM after 48 hrs by sulforhodamine B assay relative to control; conditions: MCF7, 48 h, read-out: Activity
OVCAR-3 = assay: Cytotoxicity against human OVCAR3 cells assessed as cell growth at 0.01 uM after 48 hrs by sulforhodamine B assay relative to control; conditions: OVCAR-3, 48 h, read-out: Activity
KM12 = assay: Cytotoxicity against human KM12 cells assessed as cell growth at 0.1 uM after 48 hrs by sulforhodamine B assay relative to control; conditions: KM12, 48 h, read-out: Activity
NCI-H23 [17] = assay: Cytotoxicity against human NCI-H23 cells assessed as cell growth at 0.01 uM after 48 hrs by sulforhodamine B assay relative to control; conditions: NCI-H23, 48 h, read-out: Activity
SN12C = assay: Cytotoxicity against human SN12C cells assessed as growth inhibition after 48 hrs by sulforhodamine B assay
NCI-H226 = assay: Cytotoxicity against human NCI-H226 cells assessed as cell growth at 100 uM after 48 hrs by sulforhodamine B assay relative to control; conditions: NCI-H226, 48 h, read-out: Activity
OVCAR-8 = assay: Cytotoxicity against human OVCAR8 cells assessed as cell growth at 10 uM after 48 hrs by sulforhodamine B assay relative to control; conditions: OVCAR-8, 48 h, read-out: Activity
SW-620 = assay: Cytotoxicity against human SW620 cells assessed as cell growth at 100 uM after 48 hrs by sulforhodamine B assay relative to control; conditions: SW-620, 48 h, read-out: Activity
TK-10 = assay: Cytotoxicity against human TK10 cells assessed as cell growth at 0.1 uM after 48 hrs by sulforhodamine B assay relative to control; conditions: TK-10, 48 h, read-out: Activity
T47D = assay: Cytotoxicity against human T47D cells assessed as growth inhibition after 48 hrs by sulforhodamine B assay

## COc1ccc(-c2cc(/C=C/C(=O)c3ccc(N)cc3)[nH]n2)cc1OC
NCI-H460 [1]
  growth at 1 µM: 94%
OVCAR-5
  growth at 100 µM: -81%
OVCAR-4 [2]
  growth at 1 µM: 69%
K562 [3]
  GI50: 2.03 µM
  LC50 (concentration killing 50% of cells): > 100 µM
  TGI: 36.4 µM
MDA-MB-435 [4]
  GI50: 2.53 µM
  LC50: 40.8 µM
  TGI: 7.23 µM
SR
  growth at 0.01 µM: 98%
HOP-62 [5]
  growth at 10 µM: -1%
COLO 205
  GI50: 1.88 µM
  LC50: 6.87 µM
  TGI: 3.59 µM
HOP-62 [6]
  growth at 100 µM: -98%
786-0
  growth at 0.01 µM: 91%
UACC-257
  growth at 0.01 µM: 90%
OVCAR-4 [7]
  growth at 10 µM: 24%
Malme-3M [8]
  growth at 1 µM: 114%
NCI-H23 [9]
  growth at 1 µM: 99%
NCI-H322M
  growth at 1 µM: 95%
BT-549 [10]
  growth at 10 µM: -91%
IGROV-1
  growth at 0.01 µM: 106%
BT-549 [11]
  growth at 0.1 µM: 92%
Malme-3M [12]
  growth at 0.1 µM: 108%
MDA-MB-435 [13]
  growth at 0.01 µM: 91%
SF-539
  growth at 1 µM: 88%
K562 [14]
  growth at 10 µM: 3%
SK-OV-3
  growth at 0.01 µM: 88%
NCI-H460 [15]
  growth at 0.1 µM: 100%
MDA-MB-468
  growth at 0.1 µM: 91%
K562 [16]
  growth at 100 µM: -3%
MCF7
  growth at 100 µM: -58%
OVCAR-3
  growth at 0.01 µM: 106%
KM12
  growth at 0.1 µM: 104%
NCI-H23 [17]
  growth at 0.01 µM: 103%
SN12C
  GI50: 3.53 µM
  LC50: 41.3 µM
  TGI: 13.7 µM
NCI-H226
  growth at 100 µM: -55%
OVCAR-8
  growth at 10 µM: 2%
SW-620
  growth at 100 µM: -53%
TK-10
  growth at 0.1 µM: 100%
T47D
  GI50: 4.25 µM
  LC50: > 100 µM
  TGI: 26 µM

## COc1cc2c(cc1OC)C(=O)/C(=C/c1cc(-c3ccc4c(c3)OCO4)n[nH]1)C2
NCI-H460 [1]
  growth at 1 µM: 82%
OVCAR-5
  growth at 100 µM: -86%
OVCAR-4 [2]
  growth at 1 µM: 57%
K562 [3]
  GI50: 1.59 µM
  LC50 (concentration killing 50% of cells): > 100 µM
  TGI: > 100 µM
MDA-MB-435 [4]
  GI50: 1.73 µM
  LC50: 6.18 µM
  TGI: 3.27 µM
SR
  growth at 0.01 µM: 97%
HOP-62 [5]
  growth at 10 µM: -92%
COLO 205
  GI50: 1.7 µM
  LC50: 5.68 µM
  TGI: 3.11 µM
HOP-62 [6]
  growth at 100 µM: -92%
786-0
  growth at 0.01 µM: 96%
UACC-257
  growth at 0.01 µM: 93%
OVCAR-4 [7]
  growth at 10 µM: -96%
Malme-3M [8]
  growth at 1 µM: 88%
NCI-H23 [9]
  growth at 1 µM: 92%
NCI-H322M
  growth at 1 µM: 82%
BT-549 [10]
  growth at 10 µM: -94%
IGROV-1
  growth at 0.01 µM: 100%
BT-549 [11]
  growth at 0.1 µM: 91%
Malme-3M [12]
  growth at 0.1 µM: 84%
MDA-MB-435 [13]
  growth at 0.01 µM: 102%
SF-539
  growth at 1 µM: 67%
K562 [14]
  growth at 10 µM: 2%
SK-OV-3
  growth at 0.01 µM: 102%
NCI-H460 [15]
  growth at 0.1 µM: 101%
MDA-MB-468
  growth at 0.1 µM: 83%
K562 [16]
  growth at 100 µM: 4%
MCF7
  growth at 100 µM: -72%
OVCAR-3
  growth at 0.01 µM: 101%
KM12
  growth at 0.1 µM: 99%
NCI-H23 [17]
  growth at 0.01 µM: 93%
SN12C
  GI50: 1.59 µM
  LC50: 5.62 µM
  TGI: 2.99 µM
NCI-H226
  growth at 100 µM: -46%
OVCAR-8
  growth at 10 µM: -89%
SW-620
  growth at 100 µM: -71%
TK-10
  growth at 0.1 µM: 88%
T47D
  GI50: 1.31 µM
  LC50: 5.62 µM
  TGI: 2.72 µM
